{"source": "patent US10954325B2", "about": "“Raft agents and their use in the development of polyvinylpyrrolidone grafted nanoparticles” (UNIVERSITY OF SOUTH CAROLINA, priority 2014, dated 2021)", "key": {"[1]": {"tested_on": "MRSA 252 (ATCCBAA-1720)", "test": "Disk diffusion assay, MRSA 252", "format": "cell-based, Staphylococcus aureus", "settings": "at low doses", "from_the_text": "(§1) The PVP grafted nanoparticles were employed to non-covalently attach the antibiotic penicillin-G (PenG) and tested for activity against bacteria. Methicillin-resistant Staphylococcus aureus (MRSA)-252, HA-MRSA, CA-MRSA and methicillin-sensitive Staphylococcus aureus (MSSA) were selected as the target bacteria. A control group of free PenG with the same dose was used for the disk diffusion assay of PenG-nanoparticle complex. […] Without wishing to be bound by any particular theory, it is believed that the enhanced inhibition activity was due to the locally high concentrations of antibiotics physically attached to PVP grafted nanoparticles, which overwhelms the bacterial resistance. The small size PVP grafted nanoparticles with controllable surface attached polymer chain lengths offers a significant vehicle to restore antibiotics activities.\n(§2) Bacteria Strains: MRSA 252 (ATCCBAA-1720); Staphylococcus aureus ATCC 29213 (community acquired-MRSA); Staphylococcus aureus ATCC BAA 1717 (hospital associated-MRSA); MSSA ATCC BAA 1718. These bacterial strains were grown at 37° C. in tryptic soy broth for 24 hours.\n(§3) Preparation of Nanoparticle-PenG Complex: To prepare the nanoparticle-PenG complex, 15 μL of PVP grafted silica nanoparticles solution (26.65 mg/ml) and 1.85 mL DI water were mixed. 200 μL Penicillin G sodium salt aqueous solution (1 mg/mL) was added and incubated at 24° C. […]"}, "[2]": {"tested_on": "MRSA-252, HA-MRSA, CA-MRSA and MSSA", "test": "Disk diffusion assay, result stated over the tested strains together", "format": "cell-based, Staphylococcus aureus", "settings": "when physically bound to the PVP grafted silica nanoparticles; against MRSA", "from_the_text": "as §1, §2, §3"}}, "data": [{"smiles": "CC1(C)S[C@@H]2[C@H](NC(=O)Cc3ccccc3)C(=O)N2[C@H]1C(=O)[O-].[Na+]", "note": "[free penicillin-G, penicillin-G]", "values": [{"measurement": "inhibition activity (disk diffusion)", "setting": "[1]", "value": "completely ineffective"}, {"measurement": "activity of antibiotic over MRSA", "setting": "[2]", "value": "significantly increased"}]}]}
